Data taken from patent publication US20260055079A1, “PHTHALAZINONE COMPOUNDS AS PARP7 INHIBITORS” (AZKARRA THERAPEUTICS, INC., priority 2022, published 2026).

Legend:
[1] = system: STAT1 and phosphor-Tyr701-STAT1 (pSTAT1); assay: STAT1 and pSTAT1 Western blot in CT-26 cells; assay type: cell-based
Experimental: (§1) FIG. 4B provides of Western blots in FIG. 4A. Quantification was performed using BioRad ImageLab software. Curves were fit using four parameter nonlinear regression in GraphPad Prism. STAT1 and pSTAT1 levels were normalized to tubulin. Data was from 3 biological replicates. […] Treatment was as in FIG. 4A. Note: tubulin blot was the same as in FIG. 4A since samples were run on the same nitrocellulose membrane for western blot analysis. SE=short exposure; LE=long exposure. […] Treatment was as in FIG. 4A. Note: tubulin blot is the same as in FIG. 4A since samples were run on the same nitrocellulose membrane for western blot analysis. […] Quantification was performed using BioRad ImageLab software. Curves fitting was done using a four parameter nonlinear regression in GraphPad Prism. PARP7 levels were normalized to tubulin. Data was from 3 biological replicates. […] IFN-0 levels were determined by ELISA (PBL Assay Science). Statistical analysis was performed as one-way ANOVA in GraphPad Prism. ****=p<0.001. […] Luciferase levels were measured using a luciferase assay reagent (Promega). […] Treatment was same as in FIG. 10A. Note: tubulin blot is the same as in FIG. 10A since samples were run on the same nitrocellulose membrane for western blot analysis. […] Treatment was same as in FIG. 10A. […] Proteins were detected by Western blot using specific antibodies.

[2] = system: STING; assay: STING degradation and signaling Western blot in CT-26 cells; assay type: cell-based
Experimental: as §1

[3] = target: T1, PARP7 (Mus musculus (Mouse), UniProt Q8C1B2); assay: PARP7 protein levels Western blot in CT-26 cells; assay type: cell-based
Experimental: as §1

[4] = system: IFN-β; assay: IFN-β ELISA in CT-26 cells; assay type: cell-based; settings: 300 nM, 16 h, with or without STING inhibitor H-151 (500 nM)
Experimental: (§2) FIG. 4B provides of Western blots in FIG. 4A. Quantification was performed using BioRad ImageLab software. Curves were fit using four parameter nonlinear regression in GraphPad Prism. STAT1 and pSTAT1 levels were normalized to tubulin. Data was from 3 biological replicates. […] Treatment was as in FIG. 4A. Note: tubulin blot was the same as in FIG. 4A since samples were run on the same nitrocellulose membrane for western blot analysis. SE=short exposure; LE=long exposure. […] Treatment was as in FIG. 4A. Note: tubulin blot is the same as in FIG. 4A since samples were run on the same nitrocellulose membrane for western blot analysis. […] Quantification was performed using BioRad ImageLab software. Curves fitting was done using a four parameter nonlinear regression in GraphPad Prism. PARP7 levels were normalized to tubulin. Data was from 3 biological replicates. […] IFN-0 levels were determined by ELISA (PBL Assay Science). Statistical analysis was performed as one-way ANOVA in GraphPad Prism. ****=p<0.001. […] Luciferase levels were measured using a luciferase assay reagent (Promega).

[5] = system: type I interferon reporter; assay: IRSE luciferase reporter in CT-26 cells; assay type: cell-based; settings: CT-26 cells stably expressing IRSE luciferase reporter, 16 h
Experimental: as §2

[6] = target: HiBiT-PARP7 (Mus musculus (Mouse), UniProt Q8C1B2); assay: Nuclear PARP7 immunofluorescence in HiBiT-PARP7 knockin CT-26 cells; assay type: cell-based; settings: HiBiT-PARP7 KI CT-26 cells, 300 nM, 18 h
HiBiT-PARP7, sequence (Q8C1B2 whole entry): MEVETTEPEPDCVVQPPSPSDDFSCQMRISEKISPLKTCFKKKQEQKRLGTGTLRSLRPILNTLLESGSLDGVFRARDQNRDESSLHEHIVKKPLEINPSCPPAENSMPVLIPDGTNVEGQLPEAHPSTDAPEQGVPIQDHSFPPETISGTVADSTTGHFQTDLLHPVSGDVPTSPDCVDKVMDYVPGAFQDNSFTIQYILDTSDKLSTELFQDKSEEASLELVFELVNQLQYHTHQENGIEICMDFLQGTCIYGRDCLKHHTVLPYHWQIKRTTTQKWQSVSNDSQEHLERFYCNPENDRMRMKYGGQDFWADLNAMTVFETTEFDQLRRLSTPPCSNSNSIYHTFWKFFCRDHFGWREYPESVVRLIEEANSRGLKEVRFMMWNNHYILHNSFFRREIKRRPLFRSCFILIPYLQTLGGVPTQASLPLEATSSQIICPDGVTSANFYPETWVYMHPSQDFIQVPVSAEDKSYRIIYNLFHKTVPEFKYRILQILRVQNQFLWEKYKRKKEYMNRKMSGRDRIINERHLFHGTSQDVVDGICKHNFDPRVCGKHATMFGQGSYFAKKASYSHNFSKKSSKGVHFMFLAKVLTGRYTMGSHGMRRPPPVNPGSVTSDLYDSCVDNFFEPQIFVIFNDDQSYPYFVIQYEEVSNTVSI

[7] = target: T1, PARP7; assay: Cell fractionation and PARP7 Western blot in CT-26 cells; assay type: cell-based; settings: 300 nM, 18 h, fractionation
[8] = target: GFP-PARP7 (Homo sapiens (Human), UniProt Q7Z3E1); assay: Live cell imaging of GFP-PARP7 in HeLa cells; assay type: cell-based; settings: HeLa cells overexpressing GFP-PARP7 and mRuby2-Nup90, 300 nM
GFP-PARP7, sequence (Q7Z3E1 whole entry): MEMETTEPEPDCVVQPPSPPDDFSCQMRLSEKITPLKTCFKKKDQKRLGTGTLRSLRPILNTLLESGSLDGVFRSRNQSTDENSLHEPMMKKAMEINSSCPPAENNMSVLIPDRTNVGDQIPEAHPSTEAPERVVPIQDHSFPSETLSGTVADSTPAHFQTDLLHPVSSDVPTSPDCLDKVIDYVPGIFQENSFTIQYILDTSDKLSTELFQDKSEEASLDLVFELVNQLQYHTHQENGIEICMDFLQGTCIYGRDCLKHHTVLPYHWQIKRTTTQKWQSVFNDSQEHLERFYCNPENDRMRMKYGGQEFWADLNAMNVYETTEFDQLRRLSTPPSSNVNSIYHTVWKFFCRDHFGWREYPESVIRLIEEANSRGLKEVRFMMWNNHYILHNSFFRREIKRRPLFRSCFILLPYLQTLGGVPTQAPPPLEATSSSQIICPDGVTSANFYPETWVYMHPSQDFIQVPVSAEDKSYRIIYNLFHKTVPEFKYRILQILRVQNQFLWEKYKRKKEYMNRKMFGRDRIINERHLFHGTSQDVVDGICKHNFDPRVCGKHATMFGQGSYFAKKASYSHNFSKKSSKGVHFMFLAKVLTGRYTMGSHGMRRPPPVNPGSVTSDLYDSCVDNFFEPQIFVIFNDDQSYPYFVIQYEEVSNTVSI

[9] = system: NCI-H1373 cells; assay: Cell Titer-Glo viability assay in NCI-H1373 cells; assay type: cell-based; settings: 6 d treatment, increasing concentrations
Source text: Curves were fit using three parameter a nonlinear regression in GraphPad Prism.

[10] = system: NCI-H1373 cells; assay: Cell Titer-Glo viability, NCI-H1373; assay type: cell-based; settings: Homo sapiens, NCI-H1373, 144 h; 6 days, CellTiter-Glo
Experimental: NCI-H1373 cells were seeded in a white 96-well plate (Corning) at a density of 1,000 cells per well. After 24 hours, cells were treated with PARP7 inhibitors and incubated at 37° C. for 6 days. Cell viability was assessed using CellTiter-Glo (CTG) 2.0 (Promega). After addition of the CTG reagent (following manufacturer protocol), the plate was incubated on an orbital shaker for 15 min (protected from light) at room temperature. Chemiluminescence was measured on a Spectra Max i3 (Molecular Devices), normalized to DMSO-treated wells, and IC50 values were calculated by non-linear regression (three-parameter fit) analysis using Prism 9 (GraphPad).

[11] = system: STAT1 and STAT1 Tyr701 phosphorylation (pSTAT1); assay: STAT1 and pSTAT1 (Tyr701) western blot in CT-26 cells; assay type: cell-based, mouse; settings: increasing concentrations, 16 h
[12] = target: endogenous PARP7 (Mus musculus (Mouse), UniProt Q8C1B2); assay: Endogenous PARP7 protein levels in CT-26 cells (western blot); assay type: cell-based
endogenous PARP7, sequence (Q8C1B2 whole entry): as the sequence (Q8C1B2 whole entry) above

[13] = system: secreted IFN-β; assay: Interferon-β ELISA, CT-26 cells; assay type: cell-based, mouse; settings: saturating doses
Experimental: CT-26 cells were seeded into a 6-well plate. After 24 h, the growth media was replaced, and cells were treated with inhibitors. After treatment, growth media was harvested and assayed with PBL Verikine Mouse IFN-β ELISA kit following the manufacturer protocol.

[14] = system: interferon-sensitive response element (ISRE)-firefly luciferase; assay: ISRE luciferase assay, ISRE-Luc CT-26 cells; assay type: cell-based, mouse; settings: 16 h, saturating doses
Experimental: 10,000 ISRE-Luc CT-26 or WT CT-26 cells were seeded into wells of a white 96-well plate and grown overnight. Compounds were serial diluted at 1000× concentration in DMSO. For dosing, compound dose response curves were dilute 1:100 in culture media, then added at 1:10 dilution to cell culture. Final DMSO concentration was 0.1%. Cells were incubated in treatment for 18 hours. Following treatment, the plates were developed using ONE-Glo Luciferase Assay system (Promega) per manufacturer directions. The luminescence signal was read on a Spectra Max i3 (Molecular Devices) plate reader with a 2 second integration time. WT CT-26 signal was background subtracted and curves were fit using a four-parameter […] regression in GraphPad Prism 9.

[15] = increasing concentrations, 16 h

## C[C@@H](COCCC(=O)N1CCN(c2ncc(C(F)(F)F)cn2)CC1)Nc1cn[nH]c(=O)c1C(F)(F)F [RBN-2397]
[1]; 300 nM
  STAT1 and pSTAT1 levels, time dependence: increase STAT1 and pSTAT1 in a time-dependent manner
[1]; [15]
  STAT1 and pSTAT1 levels, dose dependence: increase STAT1 and phosphor-Tyr701-STAT1 (pSTAT1) in a dose-dependent manner
[2]; 300 nM
  STING and pIRF3 levels, time dependence: decrease STING levels and increase pIRF3 levels in a time-dependent manner
[2]; [15]
  STING degradation and signaling: induced STING degradation and signaling, but not to the same extent as a STING agonist
[3]; 300 nM
  PARP7 levels, time dependence: increase PARP7 levels in a time-dependent manner
[3]; [15]
  PARP7 levels, dose dependence: increase PARP7 levels in a dose-dependent manner
[4]
  IFN-β levels: increase IFN-β levels in a STING-dependent manner
[5]
  type I interferon reporter levels: increase type I interferon reporter levels in a dose dependent manner
[6]
  nuclear PARP7 protein levels: increases nuclear PARP7 protein levels
[7]
  subcellular localisation of PARP7: PARP7 levels were only detected in nucleus
[8]
  time to detectable increase in nuclear PARP7 levels: ≤ 30 min
[9]
  cell viability: decreases viability
[10]
  EC50: 17.8 nM
[11]
  STAT1 and pSTAT1 levels: dose-dependently increased STAT1 and pSTAT1 levels
[12]
  endogenous PARP7 levels: increased PARP7 levels
[12]; saturating doses
  increase in PARP7 protein abundance compared to Example 10: 2 fold
[13]
  levels of secreted IFN-β: increased significantly the levels of secreted IFN-β to a greater extent than Example 10
[14]
  magnitude of ISRE-Luc response compared to Example 10: ~2 fold
